# Test results taken from patent US8017350B2, “Glimepiride- and insulin-induced glycosylphosphatidylinositol-specific phospholipase C regulation” (Sanofi-Aventis Deutschland GmbH, priority 2004, dated 2011).
# How the values were obtained:
# [1] = system: Hormone-sensitive lipase (HSL); assay: hormone-sensitive lipase assay (radiolabeled triolein emulsion); type: biochemical; details: 50 μM
# Method: Hormone-sensitive lipase (HSL) and lipoprotein lipase (LPL) were measured using a radiolabeled triolein droplet emulsion as described in “Vertesy et al., (2002) Journal Antibiotics 55:480-494”. Pancreatic lipase (PL) was determined by incubation of 0.25 mmol tributyrin in 2 ml of 5 mM Tris/HCl (pH 6.5), 6 mM sodium taurodeoxycholate, 150 mM NaCl, 1 mM CaCl2 with porcine PL and colipase in the same buffer using a recording pH stat (stirring at 1000 rpm at 25° C.) with the pH adjusted to 6.5. PC-PLC was assayed by incubation of 0.2 ml of 10 mM dipalmitoyllecithin, 0.1 ml of 10 mM SDC and 0.1 ml of 0.03 M CaCl2 with bacterial PC-PLC (in 50 mM Tris/HCl, pH 7.5, 0.1% BSA) for 10 min at 37° C. The reaction was terminated by addition of 0.1 ml of 50% TCA and subsequently of 2.5 ml of […]. After centrifugation (1500×g, 15 min), 0.2-ml portions of the upper methanol/water phase (˜1.33 ml) were removed, supplemented with 0.5 ml of 60% HClO4, then heated at 170° C. for 1 h and finally analyzed for inorganic phosphate. Mammalian PI-PLC was measured by incubation of 0.1 ml of 10 mM PI, 0.1 ml of 0.8% sodium deoxycholate, 0.1% BSA, 0.2 ml of 100 mM sodium borate (pH 7.5) and rat liver PI-PLC for 20 min at 37° C. The reaction was terminated and further processed as described for the PC-PLC. […] Radioactive phosphatidic acid was detected by phosphorimaging. […]
# [2] = target: T1, bovine AChE (Bos taurus, UniProt P23795); assay: AChE activity; type: biochemical; details: 50 μM
# T1 construct: solubilized and partially purified bovine erythrocyte AChE; from tissue; host or cells: bovine erythrocytes
# T1 sequence (P23795 31-614 isoform P23795-2 limits assumed): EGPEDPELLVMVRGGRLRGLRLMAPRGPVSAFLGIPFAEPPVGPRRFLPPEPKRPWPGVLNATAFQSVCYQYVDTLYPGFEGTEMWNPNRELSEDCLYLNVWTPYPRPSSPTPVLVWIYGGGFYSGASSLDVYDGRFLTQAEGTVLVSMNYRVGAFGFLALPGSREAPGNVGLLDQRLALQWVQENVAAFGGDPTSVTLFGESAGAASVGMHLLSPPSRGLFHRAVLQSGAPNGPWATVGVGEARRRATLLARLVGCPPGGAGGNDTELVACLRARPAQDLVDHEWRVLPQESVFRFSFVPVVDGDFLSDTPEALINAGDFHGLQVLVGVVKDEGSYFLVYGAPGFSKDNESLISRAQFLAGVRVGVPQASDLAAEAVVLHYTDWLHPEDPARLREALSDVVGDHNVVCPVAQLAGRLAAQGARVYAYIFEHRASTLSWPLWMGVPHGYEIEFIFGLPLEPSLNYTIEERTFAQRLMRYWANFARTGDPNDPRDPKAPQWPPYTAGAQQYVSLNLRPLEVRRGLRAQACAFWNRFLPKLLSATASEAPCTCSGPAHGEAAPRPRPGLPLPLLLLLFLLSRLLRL
# Method: Electroporation was performed as described in “Müller, G. et al., (2000) Mol. Cell. Biol. 20: 4708-4723”. Lipolysis was determined as release of glycerol or fluorescent NBD-FA from prelabeled and isoproterenol-stimulated adipocytes as described in “Müller, G. et al., (2003) Biochimie 85: 1245-1256”. Gce1 was detected by photolabeling of solubilized plasma membranes or hc/lcDIGs (10-50 μg protein) with 8-N3—[^32P]cAMP and subsequent phosphorimaging as described in “Müller, G. et al., (1994) Biochemistry 33: 12149-12159”. 5′-Nuc, aP and AChE activities were measured according to “Eliakim, R. et al., (1990) Biochim. Biophys. Acta 1355: 293-302”. Protein was determined using the BCA protein determination kit from Pierce (Rockford, Ill.) and BSA as calibration standard. SDS-PAGE was performed using precast gels (Novex, San Diego, Calif.; 10% Bis-Tris resolving gel, morpholinopropanesulfonic acid-SDS running buffer). Lumiimages were evaluated on a LumiImager using LumiImager software (Roche Diagnostics). Phosphor- and fluorescence images were processed and quantified using the Storm 860 PhosphorImager system (Molecular Dynamics, Gelsenkirchen, Germany). Figures were constructed using the ADOBE PHOTOSHOP software (Adobe Systems, Mountain View, Calif.).
# FIG. 3: Selectivity of GPI-2350. […]
compound,measurement,setting,value
"CCCCCCCCCCCCP1(=O)O[C@@H]2[C@H](O)[C@@H](O)[C@H](O)[C@@H](O)[C@@H]2O1 (some centres unmarked) [GPI-2350, myo-inositol-1,2-cyclo-dodecylphosphonic acid]",effect on HSL,[1],not significantly affected
same,effect on AChE,[2],not significantly affected
